System: ASPS-1 complex tumor spheroids, viability
Assay: Anticancer human tumor ASPS-1 cell line growth inhibition;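 note: spheroids exposed to agents for 7 days after 3 days of growth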;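 for viability, T/C: 100% = DMSO vehicle treated spheroids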
Conditions: for IC50: curve of first compound; for viability, T/C: stronger effect = lower value
Procedure, shortened: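 Single agents and combinations were tested on spheroids built from tumor cells plus HUVEC and hMSC, at half-log dilutions starting at or near clinical Cmax, else 10 microM; final DMSO 0.25% (v/v).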

[1] = second compound 1 µM, first compound 0.0316 µM
[2] = second compound 1 µM, first compound 0.1 µM
[3] = second compound 1 µM, first compound 0.316 µM
[4] = second compound 1 µM, first compound 1 µM
[5] = second compound 1 µM, first compound 3.16 µM
[6] = second compound 1 µM, first compound 10 µM
[7] = second compound 3.16 µM, first compound 0.0316 µM
[8] = second compound 3.16 µM, first compound 0.1 µM
[9] = second compound 3.16 µM, first compound 0.316 µM
[10] = second compound 3.16 µM, first compound 1 µM
[11] = second compound 3.16 µM, first compound 3.16 µM
[12] = second compound 3.16 µM, first compound 10 µM
[13] = second compound 10 µM, first compound 0.0316 µM
[14] = second compound 10 µM, first compound 0.1 µM
[15] = second compound 10 µM, first compound 0.316 µM
[16] = second compound 10 µM, first compound 1 µM
[17] = second compound 10 µM, first compound 3.16 µM
[18] = second compound 10 µM, first compound 10 µM
[19] = second compound 31.6 µM, first compound 0.0316 µM
[20] = second compound 31.6 µM, first compound 0.1 µM
[21] = second compound 31.6 µM, first compound 0.316 µM
[22] = second compound 31.6 µM, first compound 1 µM
[23] = second compound 31.6 µM, first compound 3.16 µM
[24] = second compound 31.6 µM, first compound 10 µM
[25] = second compound 100 µM, first compound 0.0316 µM
[26] = second compound 100 µM, first compound 0.1 µM
[27] = second compound 100 µM, first compound 0.316 µM
[28] = second compound 100 µM, first compound 1 µM
[29] = second compound 100 µM, first compound 3.16 µM
[30] = second compound 100 µM, first compound 10 µM

Molecule `COc1cc(C)[nH]c(=O)c1CN1CCc2c(Cl)cc(C(OC)C3COC3)c(Cl)c2C1=O` (stereo not given) + Cn1nnc2c(C(N)=O)ncn2c1=O has an IC50 (second compound 1 µM) greater than 10 µM, an IC50 (second compound 3.16 µM) greater than 10 µM and an IC50 (second compound 10 µM) greater than 10 µM. The IC50 (second compound 31.6 µM) was greater than 10 µM, the IC50 (second compound 100 µM) was greater than 10 µM and the viability, T/C [1] was 107%. For the same molecule, the viability, T/C [2] was 104%, the viability, T/C [3] was 99.2% and the viability, T/C [4] was 98.6%. It also gave a viability, T/C [5] of 94.7%, a viability, T/C [6] of 96.7% and a viability, T/C [7] of 103%. It also gave a viability, T/C [8] of 101%, a viability, T/C [9] of 103% and a viability, T/C [10] of 104%. For the same molecule, the viability, T/C [11] was 103%, the viability, T/C [12] was 90.8% and the viability, T/C [13] was 75.3%. It also gave a viability, T/C [14] of 83.9%, a viability, T/C [15] of 94.9% and a viability, T/C [16] of 86.8%. For the same molecule, the viability, T/C [17] was 91%, the viability, T/C [18] was 81.2% and the viability, T/C [19] was 80.4%. It also gave a viability, T/C [20] of 82.5%, a viability, T/C [21] of 82.5% and a viability, T/C [22] of 84.1%. It also gave a viability, T/C [23] of 82.7%, a viability, T/C [24] of 75.2% and a viability, T/C [25] of 81.8%. For the same molecule, the viability, T/C [26] was 78.6%, the viability, T/C [27] was 72.9% and the viability, T/C [28] was 72.7%. For the same molecule, the viability, T/C [29] was 69% and the viability, T/C [30] was 70%.
`Cc1cc(C)c(CNC(=O)c2cc(-c3ccc(CN4CCOCC4)cc3)cc3c2cnn3C2CCCC2)c(=O)[nH]1` + Cn1nnc2c(C(N)=O)ncn2c1=O was tested, and the IC50 (second compound 1 µM) was greater than 10 µM, the IC50 (second compound 3.16 µM) was greater than 10 µM and the IC50 (second compound 10 µM) was greater than 10 µM. For the same molecule, the IC50 (second compound 31.6 µM) was greater than 10 µM, the IC50 (second compound 100 µM) was greater than 10 µM and the viability, T/C [1] was 94.8%. It also gave a viability, T/C [2] of 95.4%, a viability, T/C [3] of 94.8% and a viability, T/C [4] of 92.7%. It also gave a viability, T/C [5] of 93.2%, a viability, T/C [6] of 86.7% and a viability, T/C [7] of 102%. The viability, T/C [8] was 98.1%, the viability, T/C [9] was 98.8% and the viability, T/C [10] was 99.6%. For the same molecule, the viability, T/C [11] was 92%, the viability, T/C [12] was 91.2% and the viability, T/C [13] was 86.3%. For the same molecule, the viability, T/C [14] was 77.6%, the viability, T/C [15] was 88% and the viability, T/C [16] was 89.3%. The viability, T/C [17] was 82%, the viability, T/C [18] was 82% and the viability, T/C [19] was 81.4%. The viability, T/C [20] was 83.7%, the viability, T/C [21] was 77.7% and the viability, T/C [22] was 87.3%. The viability, T/C [23] was 73.2%, the viability, T/C [24] was 69.8% and the viability, T/C [25] was 69%. It also gave a viability, T/C [26] of 67.5%, a viability, T/C [27] of 73.4% and a viability, T/C [28] of 71.3%. For the same molecule, the viability, T/C [29] was 61.3% and the viability, T/C [30] was 55.3%.
`Cc1sc2c(c1C)C(c1ccc(Cl)cc1)=NC(CC(=O)Nc1ccc(O)cc1)c1nnc(C)n1-2` (stereo not given) + Cn1nnc2c(C(N)=O)ncn2c1=O gave an IC50 (second compound 1 µM) greater than 3 µM, an IC50 (second compound 3.16 µM) greater than 3 µM and an IC50 (second compound 10 µM) greater than 3 µM. The IC50 (second compound 31.6 µM) was greater than 3 µM, the IC50 (second compound 100 µM) was greater than 3 µM and the viability, T/C (second compound 1 µM, first compound 0.00949 µM) was 102%. The viability, T/C (second compound 1 µM, first compound 0.03 µM) was 110%, the viability, T/C (second compound 1 µM, first compound 0.0949 µM) was 114% and the viability, T/C (second compound 1 µM, first compound 0.3 µM) was 99.4%. The viability, T/C (second compound 1 µM, first compound 0.949 µM) was 91.6%, the viability, T/C (second compound 1 µM, first compound 3 µM) was 88.6% and the viability, T/C (second compound 3.16 µM, first compound 0.00949 µM) was 101%. For the same molecule, the viability, T/C (second compound 3.16 µM, first compound 0.03 µM) was 108%, the viability, T/C (second compound 3.16 µM, first compound 0.0949 µM) was 111% and the viability, T/C (second compound 3.16 µM, first compound 0.3 µM) was 96.7%. It also gave a viability, T/C (second compound 3.16 µM, first compound 0.949 µM) of 94.9%, a viability, T/C (second compound 3.16 µM, first compound 3 µM) of 89.9% and a viability, T/C (second compound 10 µM, first compound 0.00949 µM) of 88.7%. For the same molecule, the viability, T/C (second compound 10 µM, first compound 0.03 µM) was 99.6%, the viability, T/C (second compound 10 µM, first compound 0.0949 µM) was 99.1% and the viability, T/C (second compound 10 µM, first compound 0.3 µM) was 100%. The viability, T/C (second compound 10 µM, first compound 0.949 µM) was 97.5%, the viability, T/C (second compound 10 µM, first compound 3 µM) was 83.9% and the viability, T/C (second compound 31.6 µM, first compound 0.00949 µM) was 94.6%. For the same molecule, the viability, T/C (second compound 31.6 µM, first compound 0.03 µM) was 92.3%, the viability, T/C (second compound 31.6 µM, first compound 0.0949 µM) was 103% and the viability, T/C (second compound 31.6 µM, first compound 0.3 µM) was 95.6%. The viability, T/C (second compound 31.6 µM, first compound 0.949 µM) was 83.9%, the viability, T/C (second compound 31.6 µM, first compound 3 µM) was 80.3% and the viability, T/C (second compound 100 µM, first compound 0.00949 µM) was 75.9%. It also gave a viability, T/C (second compound 100 µM, first compound 0.03 µM) of 82.6%, a viability, T/C (second compound 100 µM, first compound 0.0949 µM) of 84.8% and a viability, T/C (second compound 100 µM, first compound 0.3 µM) of 79%. The viability, T/C (second compound 100 µM, first compound 0.949 µM) was 70.7% and the viability, T/C (second compound 100 µM, first compound 3 µM) was 61.2%.
Work on `[2H]c1nc(C)nc([2H])c1-c1cc(NC[C@@H](C)c2cccc3c(C(=O)NC)ccnc23)ncn1` + Cn1nnc2c(C(N)=O)ncn2c1=O yielded an IC50 (second compound 1 µM) greater than 10 µM, an IC50 (second compound 3.16 µM) greater than 10 µM and an IC50 (second compound 10 µM) greater than 10 µM. It also gave an IC50 (second compound 31.6 µM) greater than 10 µM, an IC50 (second compound 100 µM) greater than 10 µM and a viability, T/C [1] of 106%. The viability, T/C [2] was 100%, the viability, T/C [3] was 98.3% and the viability, T/C [4] was 101%. The viability, T/C [5] was 95.8%, the viability, T/C [6] was 99.2% and the viability, T/C [7] was 104%. The viability, T/C [8] was 104%, the viability, T/C [9] was 103% and the viability, T/C [10] was 104%. For the same molecule, the viability, T/C [11] was 101%, the viability, T/C [12] was 98.3% and the viability, T/C [13] was 88.4%. For the same molecule, the viability, T/C [14] was 93.2%, the viability, T/C [15] was 96.4% and the viability, T/C [16] was 90.1%. The viability, T/C [17] was 89.5%, the viability, T/C [18] was 89.7% and the viability, T/C [19] was 79.8%. For the same molecule, the viability, T/C [20] was 80.2%, the viability, T/C [21] was 81.1% and the viability, T/C [22] was 79.7%. For the same molecule, the viability, T/C [23] was 78.3%, the viability, T/C [24] was 76.4% and the viability, T/C [25] was 74.2%. It also gave a viability, T/C [26] of 72.5%, a viability, T/C [27] of 74.5% and a viability, T/C [28] of 66.5%. For the same molecule, the viability, T/C [29] was 68.4% and the viability, T/C [30] was 65.8%.

Source: PubChem BioAssay AID1845200 (Molecular Pharmacology Branch, DTP, NCI, 2023)
